Laboratory results as given in PMC8548355 (Medicinal Chemistry Research, 2021).
Values after ≈ are worked out from the molar mass of the structure shown.

Legend:
S. aureus ATCC 29213 [1] = test: Drug interaction of 22 with FDA-approved drugs, checkerboard method; type: cell-based, Staphylococcus aureus; conditions: for Inference (drug interaction): combination of 22 with the drug, S. aureus ATCC 29213; for MIC of drug in the presence of “22” “B”: S. aureus ATCC 29213, checkerboard, in combination with 22; for MIC: Staphylococcus aureus, ATCC29213, 24 h, read-out: MIC (drug alone)
S. aureus ATCC 29213 [2] = test: MIC by broth microdilution against S. aureus ATCC 29213; type: cell-based, Staphylococcus aureus; conditions: Staphylococcus aureus, ATCC29213, read-out: MIC against S. aureus ATCC 29213, broth microdilution, 37 °C, 16–18 h
VRSA VRS 1 = test: MIC against clinical VRSA isolate VRS 1; type: cell-based; conditions: Staphylococcus aureus, read-out: MIC against VRSA VRS 1
MRSA NRS 10100 = test: MIC against clinical MRSA isolate NRS 10100; type: cell-based; conditions: Staphylococcus aureus, MRSA|NRS10100, read-out: MIC against MRSA NRS 10100
MRSA NRS 10129 = test: MIC against clinical MRSA isolate NRS 10129; type: cell-based; conditions: Staphylococcus aureus, MRSA|NRS10129, read-out: MIC against MRSA NRS 10129
MRSA NRS 10186 = test: MIC against clinical MRSA isolate NRS 10186; type: cell-based; conditions: Staphylococcus aureus, MRSA|NRS10186, read-out: MIC against MRSA NRS 10186
VRSA VRS 4 = test: MIC against clinical VRSA isolate VRS 4; type: cell-based; conditions: Staphylococcus aureus, read-out: MIC against VRSA VRS 4
VRSA VRS 12 = test: MIC against clinical VRSA isolate VRS 12; type: cell-based; conditions: Staphylococcus aureus, read-out: MIC against VRSA VRS 12
MRSA NRS 10119 = test: MIC against clinical MRSA isolate NRS 10119; type: cell-based; conditions: Staphylococcus aureus, MRSA|NRS10119, read-out: MIC against MRSA NRS 10119
MRSA NRS 10193 = test: MIC against clinical MRSA isolate NRS 10193; type: cell-based; conditions: Staphylococcus aureus, MRSA|NRS10193, read-out: MIC against MRSA NRS 10193
MRSA NRS 10191 = test: MIC against clinical MRSA isolate NRS 10191; type: cell-based; conditions: Staphylococcus aureus, MRSA|NRS10191, read-out: MIC against MRSA NRS 10191
MRSA NRS 10198 = test: MIC against clinical MRSA isolate NRS 10198; type: cell-based; conditions: Staphylococcus aureus, MRSA|NRS10198, read-out: MIC against MRSA NRS 10198
MRSA NRS 10192 = test: MIC against clinical MRSA isolate NRS 10192; type: cell-based; conditions: Staphylococcus aureus, MRSA|NRS10192, read-out: MIC against MRSA NRS 10192
MRSA NRS 10194 = test: MIC against clinical MRSA isolate NRS 10194; type: cell-based; conditions: Staphylococcus aureus, MRSA|NRS10194, read-out: MIC against MRSA NRS 10194
A. baumannii BAA 1605 = test: MIC by broth microdilution against A. baumannii BAA 1605; type: cell-based; conditions: Acinetobacter baumannii, BAA1605, read-out: MIC against A. baumannii BAA 1605
[3] = test system: clinical MDR S. aureus isolates (MRSA and VRSA); test: MIC against clinical MDR S. aureus isolates, whole panel; type: cell-based, Staphylococcus aureus; conditions: nine MRSA and three VRSA strains
E. coli ATCC 25922 = test: MIC by broth microdilution against E. coli ATCC 25922; type: cell-based; conditions: Escherichia coli, ATCC25922, read-out: MIC against E. coli ATCC 25922
K. pneumoniae BAA 1705 = test: MIC by broth microdilution against K. pneumoniae BAA 1705; type: cell-based; conditions: Klebsiella pneumoniae, BAA1705, read-out: MIC against K. pneumoniae BAA 1705

With `CO[C@H]1/C=C/O[C@@]2(C)Oc3c(C)c(O)c4c(O)c(c(/C=N/N5CCN(C)CC5)c(O)c4c3C2=O)NC(=O)/C(C)=C\C=C\[C@H](C)[C@H](O)[C@@H](C)[C@@H](O)[C@@H](C)[C@H](OC(C)=O)[C@@H]1C` [Rifampicin] the “Inference (drug interaction)” value (S. aureus ATCC 29213 [1]) was “No interaction”.

With `O=C(Nc1ccc(F)c(Cl)c1)c1cc(Cl)ccc1O` [Compound 14, 5-Chloro-N-(3ʹ-chloro-4ʹ-fluorophenyl)-2-hydroxybenzamide] the MIC (S. aureus ATCC 29213 [2]) was 0.5 µg/mL (≈ 1.67 µM).

For `C[C@@H](O)[C@H]1C(=O)N2C(C(=O)O)=C(S[C@@H]3CN[C@H](C(=O)N(C)C)C3)[C@H](C)[C@H]12` [Meropenem, reference compound], the MIC (VRSA VRS 1) was over 64 µg/mL, the “MIC of drug in the presence of “22” “B”” value (S. aureus ATCC 29213 [1]) was 0.5 µg/mL and the MIC (S. aureus ATCC 29213 [1]) was 0.5 µg/mL. The “Inference (drug interaction)” value (S. aureus ATCC 29213 [1]) was “No interaction”, the MIC (MRSA NRS 10100) was 64 µg/mL (≈ 167 µM) and the MIC (MRSA NRS 10129) was 16 µg/mL (≈ 41.7 µM). For the same compound, the MIC (MRSA NRS 10186) was 16 µg/mL (≈ 41.7 µM), the MIC (VRSA VRS 4) was over 64 µg/mL and the MIC (VRSA VRS 12) was 16 µg/mL (≈ 41.7 µM). For the same compound, the MIC (MRSA NRS 10119) was over 64 µg/mL, the MIC (MRSA NRS 10193) was over 64 µg/mL and the MIC (MRSA NRS 10191) was over 64 µg/mL. For the same compound, the MIC (MRSA NRS 10198) was over 64 µg/mL, the MIC (MRSA NRS 10192) was 32 µg/mL (≈ 83.4 µM) and the MIC (MRSA NRS 10194) was 4 µg/mL (≈ 10.4 µM).

`O=C(Nc1ccc(Cl)cc1)c1cc(Cl)ccc1O` [Compound 24, 5-Chloro-N-(4ʹ-chlorophenyl)-2-hydroxybenzamide] was tested, and the MIC (VRSA VRS 1) was 0.5 µg/mL (≈ 1.77 µM), the MIC (A. baumannii BAA 1605) was over 64 µg/mL and the “MIC against MRSA and VRSA isolates (range over the panel)” value [3] was 0.25 to 0.5 µg/mL. The MIC (E. coli ATCC 25922) was over 64 µg/mL, the MIC (MRSA NRS 10100) was 0.5 µg/mL (≈ 1.77 µM) and the MIC (K. pneumoniae BAA 1705) was over 64 µg/mL. It also gave an MIC (MRSA NRS 10129) of 0.5 µg/mL (≈ 1.77 µM), an MIC (MRSA NRS 10186) of 0.5 µg/mL (≈ 1.77 µM) and an MIC (VRSA VRS 4) of 0.5 µg/mL (≈ 1.77 µM). It also gave an MIC (VRSA VRS 12) of 0.5 µg/mL (≈ 1.77 µM), an MIC (MRSA NRS 10119) of 0.25 µg/mL (≈ 0.886 µM) and an MIC (MRSA NRS 10193) of 0.5 µg/mL (≈ 1.77 µM). For the same compound, the MIC (MRSA NRS 10191) was 0.5 µg/mL (≈ 1.77 µM), the MIC (S. aureus ATCC 29213 [2]) was 0.5 µg/mL (≈ 1.77 µM) and the MIC (MRSA NRS 10198) was 0.5 µg/mL (≈ 1.77 µM). It also gave an MIC (MRSA NRS 10192) of 0.5 µg/mL (≈ 1.77 µM) and an MIC (MRSA NRS 10194) of 0.5 µg/mL (≈ 1.77 µM).

For `CN(C)c1ccc(O)c2c1C[C@H]1C[C@H]3[C@H](N(C)C)C(O)=C(C(N)=O)C(=O)[C@@]3(O)C(O)=C1C2=O` [Minocycline], the “MIC of drug in the presence of “22” “B”” value (S. aureus ATCC 29213 [1]) was 0.125 µg/mL, the MIC (S. aureus ATCC 29213 [1]) was 0.125 µg/mL and the “Inference (drug interaction)” value (S. aureus ATCC 29213 [1]) was “No interaction”.

`CCCCCCCCCC(=O)N[C@@H](Cc1c[nH]c2ccccc12)C(=O)N[C@H](CC(N)=O)C(=O)N[C@@H](CC(=O)O)C(=O)N[C@@H]1C(=O)NCC(=O)N[C@@H](CCCN)C(=O)N[C@@H](CC(=O)O)C(=O)N[C@H](C)C(=O)N[C@@H](CC(=O)O)C(=O)NCC(=O)N[C@H](CO)C(=O)N[C@@H]([C@H](C)CC(=O)O)C(=O)N[C@@H](CC(=O)c2ccccc2N)C(=O)O[C@@H]1C` [Daptomycin] was tested, and the “MIC of drug in the presence of “22” “B”” value (S. aureus ATCC 29213 [1]) was 1 µg/mL, the MIC (S. aureus ATCC 29213 [1]) was 1 µg/mL and the “Inference (drug interaction)” value (S. aureus ATCC 29213 [1]) was “No interaction”.

`O=C(Nc1ccc([N+](=O)[O-])cc1F)c1cc(Cl)ccc1O` [Compound 18, 5-Chloro-N-(2ʹ-fluoro-4ʹ-nitrophenyl)-2-hydroxybenzamide] showed an MIC (A. baumannii BAA 1605) of over 64 µg/mL, an MIC (E. coli ATCC 25922) of over 64 µg/mL and an MIC (K. pneumoniae BAA 1705) of over 64 µg/mL. It also gave an MIC (S. aureus ATCC 29213 [2]) of 1 µg/mL (≈ 3.22 µM).

`O=C(Nc1ccccc1)c1ccccc1` [Compound 3, N-phenylbenzamide] was tested, and the MIC (A. baumannii BAA 1605) was over 64 µg/mL, the MIC (E. coli ATCC 25922) was over 64 µg/mL and the MIC (K. pneumoniae BAA 1705) was over 64 µg/mL. For the same compound, the MIC (S. aureus ATCC 29213 [2]) was over 64 µg/mL.

`O=C(Nc1ccccc1F)c1ccccc1O` [Compound 9, N-(2ʹ-fluorophenyl)-2-hydroxybenzamide] gave an MIC (A. baumannii BAA 1605) of over 64 µg/mL, an MIC (E. coli ATCC 25922) of over 64 µg/mL and an MIC (K. pneumoniae BAA 1705) of over 64 µg/mL.

`COc1cccc(OC)c1C(=O)N[C@@H]1C(=O)N2[C@@H]1SC(C)(C)[C@@H]2C(=O)O` [Methicillin, reference compound] gave an MIC (VRSA VRS 1) of over 64 µg/mL, an MIC (MRSA NRS 10100) of over 64 µg/mL and an MIC (MRSA NRS 10129) of 32 µg/mL (≈ 84.1 µM). The MIC (MRSA NRS 10186) was 64 µg/mL (≈ 168 µM), the MIC (VRSA VRS 4) was over 64 µg/mL and the MIC (VRSA VRS 12) was over 64 µg/mL. For the same compound, the MIC (MRSA NRS 10119) was over 64 µg/mL, the MIC (MRSA NRS 10193) was over 64 µg/mL and the MIC (MRSA NRS 10191) was over 64 µg/mL. It also gave an MIC (MRSA NRS 10198) of over 64 µg/mL, an MIC (MRSA NRS 10192) of over 64 µg/mL and an MIC (MRSA NRS 10194) of 32 µg/mL (≈ 84.1 µM).

In the case of `O=C(Nc1ccc(F)c(Cl)c1)c1ccccc1O` [Compound 13, N-(3ʹ-chloro-4ʹ-fluorophenyl)-2-hydroxybenzamide], the MIC (A. baumannii BAA 1605) is reported as over 64 µg/mL, the MIC (E. coli ATCC 25922) is reported as over 64 µg/mL and the MIC (K. pneumoniae BAA 1705) is reported as over 64 µg/mL. It also gave an MIC (S. aureus ATCC 29213 [2]) of 4 µg/mL (≈ 15.1 µM).

`O=C(Nc1ccc(Cl)c(C(F)(F)F)c1)c1ccccc1O` [Compound 19, N-(4ʹ-chloro-3ʹ-(trifluoromethyl)phenyl)-2-hydroxybenzamide] was tested, and the MIC (A. baumannii BAA 1605) was over 64 µg/mL, the MIC (E. coli ATCC 25922) was over 64 µg/mL and the MIC (K. pneumoniae BAA 1705) was over 64 µg/mL. The MIC (S. aureus ATCC 29213 [2]) was 1 µg/mL (≈ 3.17 µM).

`O=C(Nc1ccccc1)c1ccccc1O` [Compound 5, N-(phenyl)-2-hydroxybenzamide] showed an MIC (A. baumannii BAA 1605) of over 64 µg/mL, an MIC (E. coli ATCC 25922) of over 64 µg/mL and an MIC (K. pneumoniae BAA 1705) of over 64 µg/mL. It also gave an MIC (S. aureus ATCC 29213 [2]) of 64 µg/mL (≈ 300 µM).
